From patent US20220000403A1, “NEUROT[…] DETECTION SYSTEM AND METHOD OF DETECTING A NEUROT[…]” (Ocumove ApS, priority 2018, published 2022)

Experiments:
Assay type in all cases: in vivo, human
patient with ADHD [1] = assay: Frequency analysis (FFT) of closed-eye movement signal before/after medication, Example 5; conditions: one tablet of 10 mg
Procedure: (§1) Strain gauge sensors (SleepSense Limb Movement Sensors) from SleepSense were used as eye movement sensors. These where connected to a Digital Brain Electric Activity Mapping KT88 EEG apparatus as a recording and frequency analysis arrangement.
(§2) The subjects were instructed to keep their eyes closed, but to refrain from falling asleep.
(§3) The signal from the sensors where filtered by one of two different filters; a 2.5 Hz low pass filter with 24 dB reduction.
(§4) A signal was recorded over a period of 5 minutes. 1 minute of signal is illustrated in FIG. 3.
Using eye movement signals recorded as explained in example 1, frequency analysis was performed to determine a frequency distribution. However, only a 10 seconds period corresponding to the first 10 seconds of the latency time of example 2 was used. A Fast Fourier Transformation (FFT) based algorithm was used, with a 100 mHz resolution.
Using eye movement signals recorded as explained in example 1, frequency analysis was performed to determine a frequency distribution. A Fast Fourier Transformation (FFT) based algorithm was used, with a 100 mHz resolution.
In example 5, signals were recorded on a patient with ADHD.
On FIG. 6A is the result when the patient was in an initial, unmedicated state. […]

patient with ADHD [2] = assay: Number of large eye movements before/after medication, Example 5
Procedure: as §1, §2, §3, §4
A large eye movement number was established as the number of times the signals exceeded 50 μV, or moved below −50 μV. This signifies the number of large eye movements.
On FIG. 6A is the result when the patient was in an initial, unmedicated state. A second measurement was made after administering suitable ADHD-medication to the patient (one tablet of 10 mg of methylphenidate), this is shown in FIG. 6B.
Furthermore, the number of eye movements was analyzed as in example 1, before and after medication.

subjects with ADHD = assay: Eye movement signal parameters before/after methylphenidate, ADHD subjects (Example 6.6)
Procedure: as §1, §2, §3, §4
(§5) Eye movement signals were recorded using the methods described in example 1.
Data from 7 subjects with ADHD examined before treatment. Hereafter methylphenidate was administered, and after a subjective assessment of an effect thereof, the measurement was repeated. The sensors were in place during the entire test.

subjects with ADD = assay: Eye movement signal parameters before/after methylphenidate, ADD subjects (Example 6.6)
Procedure: as §1, §2, §3, §4, §5
In 3 out of 4 cases, an increase in the amplitude and a decrease in the average frequency was observed.

[3] = test system: subjects with an AHDH or ADD diagnosis; assay: Maximum FFT amplitude before/after startup of methylphenidate treatment (Example 7.3)
Procedure: A number of sample signals were recorded. Each sample was recorded over a period of 360 seconds. Only the middle 240 seconds are used, as the first 60 seconds and the last 60 second of the signal is discarded to avoid introducing artifacts related to the startup and termination of the test and the subject getting used to the eye sensors etc.
The signals were subjected to frequency analysis by FFT with 100 mHz solution.
Maximum amplitude of the frequency distribution (i.e. max FFT amplitude) is identified.
20 subjects with an AHDH or ADD diagnosis were evaluated with respect to effect of startup of methylphenidate treatment. A sample was recorded for each subject in accordance with example 7.2, and a maximum FFT amplitude was outputted from the frequency analysis arrangement (maximum FFT amplitude before, MAB). Thereafter, a startup dose of methylphenidate was prescribed for each subject. After ingestion, a further sample was recorded for each subject, and a maximum FFT amplitude was outputted from the frequency analysis arrangement (maximum FFT amplitude after, MAA).

Structure (SMILES): COC(=O)C(c1ccccc1)C1CCCCN1 (stereo not shown) [methylphenidate]
- maximum value of frequency components after medication, reduction to (patient with ADHD [1]; 10 s period, FIG. 6C vs 6D): ~20%
- frequency content after medication, reduction to (patient with ADHD [1]; 5 min signal, FIG. 6A vs 6B): ~50%
- Number of eye movements after medication (patient with ADHD [2]; 1-60 s, signal exceeding +/− 50 μV, before 54): 60
- Number of eye movements after medication (patient with ADHD [2]; 61-120 s, before 15): 0
- Number of eye movements after medication (patient with ADHD [2]; 121-180 s, before 23): 2
- Number of eye movements after medication (patient with ADHD [2]; 181-240 s, before 16): 1
- Number of eye movements after medication (patient with ADHD [2]; 241-300 s, before 14): 2
- cases with a fall in the amplitude and an increase in the average frequency (subjects with ADHD; of 7 subjects with ADHD, after methylphenidate): 6 cases
- DATA B Av Fq (subjects with ADHD; subject 143/144, after treatment, before 3.241667): 4.858
- DATA B FFT Amplitude (subjects with ADHD; subject 143/144, after treatment, before 15): 7
- DATA B Av Amp (subjects with ADHD; subject 143/144, after treatment, before −0.37474): 0.001138
- DATA B Av Fq (subjects with ADHD; subject 167/168, after treatment, before 4.511667): 4.647
- DATA B FFT Amplitude (subjects with ADHD; subject 167/168, after treatment, before 10): 9.6
- DATA B Av Amp (subjects with ADHD; subject 167/168, after treatment, before −0.199017): 0.04479
- DATA B Av Amp (subjects with ADHD; subject 177/178, after treatment, before 0.578600): 0.5056
- DATA B Av Fq (subjects with ADHD; subject 177/178, after treatment, before 2.05333): 2.23
- DATA B FFT Amplitude (subjects with ADHD; subject 177/178, after treatment, before 28): 26
- DATA B Av Amp (subjects with ADHD; subject 179/180, after treatment, before 0.002030): 0.04999
- DATA B Av Fq (subjects with ADHD; subject 179/180, after treatment, before 3.07500): 3.695
- DATA B FFT Amplitude (subjects with ADHD; subject 179/180, after treatment, before 9.5): 4.1
- DATA B Av Amp (subjects with ADHD; subject 187/188, after treatment, before 0.061771): 0.09263
- DATA B Av Fq (subjects with ADHD; subject 187/188, after treatment, before 2.73667): 2.553
- DATA B FFT Amplitude (subjects with ADHD; subject 187/188, after treatment, before 9.5): 12
- DATA B Av Amp (subjects with ADHD; subject 189/190, after treatment, before 0.012759): 0.007571
- DATA B Av Fq (subjects with ADHD; subject 189/190, after treatment, before 3.79500): 3.947
- DATA B FFT Amplitude (subjects with ADHD; subject 189/190, after treatment, before 8.5): 5.0
- DATA B Av Amp (subjects with ADHD; subject 192/193, after treatment, before 0.046206): 0.000667
- DATA B Av Fq (subjects with ADHD; subject 192/193, after treatment, before 2.425000): 4.838
- DATA B FFT Amplitude (subjects with ADHD; subject 192/193, after treatment, before 22): 8.0
- cases with an increase in the amplitude and a decrease in the average frequency (subjects with ADD; out of 4 ADD subjects treated with methylphenidate): 3 cases
- DATA B Av Amp (subjects with ADD; subject 146/147, after treatment, before 0.031965): 0.03275
- DATA B FFT Amplitude (subjects with ADD; subject 146/147, after treatment, before 3): 6.1
- DATA B Av Fq (subjects with ADD; subject 146/147, after treatment, before 5.07667): 4.083
- DATA B Av Amp (subjects with ADD; subject 152/153, after treatment, before 0.061080): 0.04852
- DATA B Av Fq (subjects with ADD; subject 152/153, after treatment, before 3.62833): 4.618
- DATA B FFT Amplitude (subjects with ADD; subject 152/153, after treatment, before 5.5): 4.2
- DATA B Av Amp (subjects with ADD; subject 170/171, after treatment, before 0.030927): 0.02591
- DATA B FFT Amplitude (subjects with ADD; subject 170/171, after treatment, before 2.5): 2.6
- DATA B Av Fq (subjects with ADD; subject 170/171, after treatment, before 5.80555): 5.523
- DATA B Av Amp (subjects with ADD; subject 184/185, after treatment, before 0.054841): 0.05472
- DATA B Av Fq (subjects with ADD; subject 184/185, after treatment, before 4.42333): 3.64
- DATA B FFT Amplitude (subjects with ADD; subject 184/185, after treatment, before 5.0): 8.0
- Eff. M.: Evaluation of effect of methylphenidate ([3]; subject 143 ADHD): Good
- RC: relative change in FFT amplitude ([3]; subject 143 ADHD): −53
- MAA: Maximum FFT amplitude after ([3]; subject 143 ADHD, MAB 14.3): 6.7
- Eff. M.: Evaluation of effect of methylphenidate ([3]; subject 146): No
- RC: relative change in FFT amplitude ([3]; subject 146): 100
- MAA: Maximum FFT amplitude after ([3]; subject 146, MAB 2.8): 5.6
- Eff. M.: Evaluation of effect of methylphenidate ([3]; subject 148 ADHD): Good
- RC: relative change in FFT amplitude ([3]; subject 148 ADHD): −60
- MAA: Maximum FFT amplitude after ([3]; subject 148 ADHD, MAB 8.7): 3.5
- Eff. M.: Evaluation of effect of methylphenidate ([3]; subject 152): Good
